# What was measured:
# Assay type in all cases: cell-based, mouse
# [1] = tested on: α7 integrin (LacZ reporter in α7+/LacZ myotubes); experiment: Myotube α7 integrin FDG assay (Burkin assay in myotubes, 96-well); settings: for Burkin Assay in Myotubes, value relative to DMSO: SU9516 analogs, 96-well, N=3-6
# [2] = tested on: β-galactosidase in CMV-LacZ C2C12 myoblasts; experiment: CMV-LacZ secondary screen in C2C12 myoblasts (β-Gal stabilizing assay); settings: for CMV-LACZ in Myoblasts (β-galactosidase activity relative to DMSO): CMV-LacZ C2C12 myoblasts; for CMV-LACZ in Myoblasts, value relative to DMSO: SU9516 analogs, C2C12 CMV-LacZ, N=2
# Summary of the method: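 β-gal stabilization was measured in C2C12 myoblasts or myotubes stably transfected with a CMV-driven LacZ construct, using the FDG β-gal assay. Compounds were tested in dose-response at 0.5, 1, 5, 10, 20 and 40 μM, with two replicates per point.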
# [3] = tested on: α7 integrin (LacZ reporter in α7βgal+/− myoblasts); experiment: Myoblast α7+/LacZ integrin FDG assay (Burkin assay in myoblasts, 96-well); settings: 96-well; for Burkin Assay in Myoblasts, signal relative to DMSO: α7+/LacZ myoblasts; for Burkin Assay in Myoblasts, value relative to DMSO: SU9516 analogs, N=3-6
# [4] = tested on: β-galactosidase in CMV-LacZ C2C12 myotubes; experiment: CMV-LacZ secondary screen in C2C12 myotubes (β-Gal stabilizing assay); settings: for CMV-LACZ in Myotubes, signal relative to DMSO: C2C12 CMV-LacZ myotubes, fold relative to DMSO; for CMV-LACZ in Myotubes, value relative to DMSO: SU9516 analogs, C2C12 CMV-LacZ, N=2
# Summary of the method: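 First, C2C12 myoblasts were transfected with a linearized CMV-LACZ vector and clonal lines selected by FDG β-gal assay. Then cells were exposed to compounds at 0.5, 1, 5, 10, 20 and 40 μM in 96-well format, two replicates each, and β-gal measured.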
smiles,measurement,setting,value
O=C(NCCc1ccccc1)C1CCC(=O)N1C1CCCC1 (stereo not drawn) [MLS001200665-01],"Burkin Assay in Myotubes, α7 integrin LacZ reporter signal relative to DMSO",[1]; 0.5 uM,1.031
same,"Burkin Assay in Myotubes, α7 integrin LacZ reporter signal relative to DMSO",[1]; 1 uM,0.8461
same,"Burkin Assay in Myotubes, α7 integrin LacZ reporter signal relative to DMSO",[1]; 5 uM,1.091
same,"Burkin Assay in Myotubes, α7 integrin LacZ reporter signal relative to DMSO",[1]; 10 uM,1.126
same,"Burkin Assay in Myotubes, α7 integrin LacZ reporter signal relative to DMSO",[1]; 20 uM,0.8365
same,"Burkin Assay in Myotubes, α7 integrin LacZ reporter signal relative to DMSO",[1]; 40 uM,0.8877
same,CMV-LACZ in Myoblasts (β-galactosidase activity relative to DMSO),[2]; 0.5 uM,1.1043
same,CMV-LACZ in Myoblasts (β-galactosidase activity relative to DMSO),[2]; 1 uM,0.9783
same,CMV-LACZ in Myoblasts (β-galactosidase activity relative to DMSO),[2]; 5 uM,0.9398
same,CMV-LACZ in Myoblasts (β-galactosidase activity relative to DMSO),[2]; 10 uM,1.0036
same,CMV-LACZ in Myoblasts (β-galactosidase activity relative to DMSO),[2]; 20 uM,0.7152
same,CMV-LACZ in Myoblasts (β-galactosidase activity relative to DMSO),[2]; 40 uM,0.9937
same,"Burkin Assay in Myoblasts, signal relative to DMSO",[3]; 0.5 uM,0.8982
same,"Burkin Assay in Myoblasts, signal relative to DMSO",[3]; 1 uM,0.8539
same,"Burkin Assay in Myoblasts, signal relative to DMSO",[3]; 5 uM,1.003
same,"Burkin Assay in Myoblasts, signal relative to DMSO",[3]; 10 uM,1.245
same,"Burkin Assay in Myoblasts, signal relative to DMSO",[3]; 20 uM,1.143
same,"Burkin Assay in Myoblasts, signal relative to DMSO",[3]; 40 uM,1.029
same,"CMV-LACZ in Myotubes, signal relative to DMSO",[4]; 0.5 uM,1.1543
same,"CMV-LACZ in Myotubes, signal relative to DMSO",[4]; 1 uM,0.9695
same,"CMV-LACZ in Myotubes, signal relative to DMSO",[4]; 5 uM,1.1274
same,"CMV-LACZ in Myotubes, signal relative to DMSO",[4]; 10 uM,0.9662
same,"CMV-LACZ in Myotubes, signal relative to DMSO",[4]; 20 uM,1.1800
same,"CMV-LACZ in Myotubes, signal relative to DMSO",[4]; 40 uM,1.2706
Cc1ccc2c(c1)/C(=C/c1ccccc1F)C(=O)N2 [MLS001202330-01],"Burkin Assay in Myotubes, value relative to DMSO",[1]; 0.5 uM,0.9709
same,"Burkin Assay in Myotubes, value relative to DMSO",[1]; 1 uM,0.9174
same,"Burkin Assay in Myotubes, value relative to DMSO",[1]; 5 uM,0.9123
same,"Burkin Assay in Myotubes, value relative to DMSO",[1]; 10 uM,1.017
same,"Burkin Assay in Myotubes, value relative to DMSO",[1]; 20 uM,0.6303
same,"Burkin Assay in Myotubes, value relative to DMSO",[1]; 40 uM,0.6207
same,"CMV-LACZ in Myoblasts, value relative to DMSO",[2]; 0.5 uM,0.7417
same,"CMV-LACZ in Myoblasts, value relative to DMSO",[2]; 1 uM,0.9325
same,"CMV-LACZ in Myoblasts, value relative to DMSO",[2]; 5 uM,1.0099
same,"CMV-LACZ in Myoblasts, value relative to DMSO",[2]; 10 uM,0.9082
same,"CMV-LACZ in Myoblasts, value relative to DMSO",[2]; 20 uM,0.9511
same,"CMV-LACZ in Myoblasts, value relative to DMSO",[2]; 40 uM,0.7619
same,"Burkin Assay in Myoblasts, value relative to DMSO",[3]; 0.5 uM,0.9738
same,"Burkin Assay in Myoblasts, value relative to DMSO",[3]; 1 uM,1.028
same,"Burkin Assay in Myoblasts, value relative to DMSO",[3]; 5 uM,0.9558
same,"Burkin Assay in Myoblasts, value relative to DMSO",[3]; 10 uM,0.9341
same,"Burkin Assay in Myoblasts, value relative to DMSO",[3]; 20 uM,0.8305
same,"Burkin Assay in Myoblasts, value relative to DMSO",[3]; 40 uM,0.6468
same,"CMV-LACZ in Myotubes, value relative to DMSO",[4]; 0.5 uM,0.8314
same,"CMV-LACZ in Myotubes, value relative to DMSO",[4]; 1 uM,0.9562
same,"CMV-LACZ in Myotubes, value relative to DMSO",[4]; 5 uM,0.9600
same,"CMV-LACZ in Myotubes, value relative to DMSO",[4]; 10 uM,0.8717
same,"CMV-LACZ in Myotubes, value relative to DMSO",[4]; 20 uM,0.9168
same,"CMV-LACZ in Myotubes, value relative to DMSO",[4]; 40 uM,0.8242
Cc1ccc2c(c1)/C(=C/c1ccccc1)C(=O)N2 [MLS001202354-01],"Burkin Assay in Myotubes, value relative to DMSO",[1]; 0.5 uM,0.8459
same,"Burkin Assay in Myotubes, value relative to DMSO",[1]; 1 uM,0.9022
same,"Burkin Assay in Myotubes, value relative to DMSO",[1]; 5 uM,0.9545
same,"Burkin Assay in Myotubes, value relative to DMSO",[1]; 10 uM,1.069
same,"Burkin Assay in Myotubes, value relative to DMSO",[1]; 20 uM,0.5824
same,"Burkin Assay in Myotubes, value relative to DMSO",[1]; 40 uM,0.5785
same,"CMV-LACZ in Myoblasts, value relative to DMSO",[2]; 0.5 uM,1.2275
same,"CMV-LACZ in Myoblasts, value relative to DMSO",[2]; 1 uM,0.9521
same,"CMV-LACZ in Myoblasts, value relative to DMSO",[2]; 5 uM,0.9669
same,"CMV-LACZ in Myoblasts, value relative to DMSO",[2]; 10 uM,0.9170
same,"CMV-LACZ in Myoblasts, value relative to DMSO",[2]; 20 uM,0.8378
same,"CMV-LACZ in Myoblasts, value relative to DMSO",[2]; 40 uM,0.7437
same,"Burkin Assay in Myoblasts, value relative to DMSO",[3]; 0.5 uM,1.077
same,"Burkin Assay in Myoblasts, value relative to DMSO",[3]; 1 uM,1.023
same,"Burkin Assay in Myoblasts, value relative to DMSO",[3]; 5 uM,1.036
same,"Burkin Assay in Myoblasts, value relative to DMSO",[3]; 10 uM,1.073
same,"Burkin Assay in Myoblasts, value relative to DMSO",[3]; 20 uM,0.516
same,"Burkin Assay in Myoblasts, value relative to DMSO",[3]; 40 uM,0.4275
same,"CMV-LACZ in Myotubes, value relative to DMSO",[4]; 0.5 uM,1.0676
same,"CMV-LACZ in Myotubes, value relative to DMSO",[4]; 1 uM,0.9200
same,"CMV-LACZ in Myotubes, value relative to DMSO",[4]; 5 uM,0.8910
same,"CMV-LACZ in Myotubes, value relative to DMSO",[4]; 10 uM,1.0340
same,"CMV-LACZ in Myotubes, value relative to DMSO",[4]; 20 uM,0.7000
same,"CMV-LACZ in Myotubes, value relative to DMSO",[4]; 40 uM,0.7863
